{"source": "patent US9957236B2", "about": "“Selective inhibitors interfering with fibroblast growth factor receptor and FRS2 interaction for the prevention and treatment of cancer and other diseases” (LIMITED LIABILITY COMPANY “RUSSIAN PHARMACEUTICAL …, priority 2014, dated 2018)", "key": {"[1]": {"tested_on": "modified line of non-small cells lung cancer A549", "experiment": "Crystal Violet proliferation assay, modified A549", "format": "cell-based", "conditions": "Homo sapiens; modified A549 with pronounced expression of FGFR2", "source_text": "This research used additional cell lines: SKOV3 (ovarian cancer, ATCC # HTB-77), HS578T (breast cancer, ATCC # HTB-126), T47D (breast cancer, ATCC #HTB-1336), modified line of non-small cells lung cancer A549, line of metastatic melanoma of skin Mel Kor (RF Patent No. 2287578), and additional study of antiangiogenic activity—cell line SVEC-4-10 (endothelial cells, ATCC #CRL-2181).\nThe cells were cultivated in environment RPMI-1640 (PANECO) (SKOV3, HS578T, T47D, Mel-Kor) or DMEM (PANECO) (SVEC-4-10) containing 10% of embryonal serum cattle (FCS, HyClone), 2 mM glutamine (PANECO), antibiotics (100 IU/mL penicillin and […] streptomycin (all PANECO)) at 37° C. and 5% CO2. Cells at 70-80% monolayer were used for the experiments.\nThe cells were planted in low density (30 t of cells/ml) in triplets on a 96-cavity plate in an environment containing 0.1% of FCS serum. […] Growth of cells was determined by the modified “Crystal Violet mitogenic method” for 7 days after the experiment start. […] The dye was dissolved in ethanol and measured on a spectrophotometer at 540-560 nm. The curve of cell proliferative activity inhibition was built by the dependence of the percent of the cell quantity (Y axis) on concentration of inhibitor RPT835 in the cavity of the plate (X axis). […]"}, "[2]": {"tested_on": "triple negative breast cancer HS578T", "experiment": "Tumor growth of HS578T xenograft in nude mice", "format": "in vivo", "conditions": "for Slowdown of tumor growth: 30 mg/kg daily; for average size of tumor: 30 mg/kg daily through a stomach tube", "experimental": "(§1) Females of immunodeficient mice (nude) at the age of 8 weeks were administered 2×10^6 tumor cells of human cell lines with various expression of FGFR2: • cell line of triple-negative breast cancer SUM52PE strongly expressing FGFR2 (purchased from Asterand, Inc. (Detroit, Mich.) • cell line of triple negative breast cancer HS578T weakly expressing FGFR2 (purchased from ATCC (CRL-125) • cell line of non-small cell lung cancer NCI-H226 not expressing FGFR2 (purchased from ATCC (CRL-5826)\n(§2) After the tumor growth got established (1 mm^3), the mice were divided into control and treatment groups in accordance with the tumor type.\nControl group 2 (N=10): HS578T, administration of water through a stomach tube, daily.\nTreatment group 2 (N=10): HS578T, administration of inhibitor RPT835 through a stomach tube in a dose of 30 mg/kg, daily.\n(§3) Size of tumor and weight of animals were measured every 3 day. The mice underwent euthanasia when the tumor reached the size of 2,000 mm^3 or on the 60 day of the experiment."}, "[3]": {"tested_on": "triple negative breast cancer SUM52PE", "experiment": "Tumor growth of SUM52PE xenograft in nude mice", "format": "in vivo", "experimental": "as §1, §2\nControl group 1 (N=10): SUM52PE, administration of water through a stomach tube, daily.\nTreatment group 1 (N=10): SUM52PE, administration of inhibitor RPT835 through a stomach tube in a dose of 30 mg/kg, daily.\nas §3"}, "[4]": {"tested_on": "hFOB cells", "experiment": "Proliferation of hFOB cells expressing FGFR2 IIIc", "format": "cell-based, human", "conditions": "RPT835 1 micron, FGF-1 100 ng/ml", "experimental": "The research assessed the influence of inhibitor RPT835 determined by formula II of this invention, intervention with interaction of FGFR2 represented by two most frequent isoforms IIIb and IIIc with FRS2. For this, human cell line of embryonal osteoblasts (hFOB) expressing only FGFR2 […], and human cell line of breast cancer SUM-52 expressing FGFR2 IIIb (all main versions of isoform—C1, C2, C3) were chosen.\nCells were divided into the groups: • 1a) hFOB • 1b) hFOB, stimulating FGF-1 (100 ng/ml) • 1c) hFOB, cultivation with RPT835 (1 micron) and stimulation of FGF-1 (100 ng/ml) • 2a) SUM-52 • 2b) SUM-52, stimulation of FGF-1 (100 ng/ml) • 2c) SUM-52, cultivation with RPT835 (1 micron) and stimulation of FGF-1 (100 ng/ml)"}, "[5]": {"tested_on": "FGFR2", "experiment": "FGFR phosphorylation in KATO III cells (Western blotting, Wes)", "format": "cell-based", "experimental": "For assessment of the effect of RPT835 inhibitor characterized in this invention with formula II, stomach cancer cells KATO III, which express FGFR2, were used for FRS2 phosphorylation. FGF-2 in concentration of 1 mg/ml and heparin 10 mg/ml were added to the cells for stimulation of FGFR. RPT835 was added in various concentrations. A part of the cells was left without adding the inhibitor, and a part of the cells—without adding either inhibitor, or stimulating agents (control group).\nTwo standard methods for assessment of the phosphorylation level of FGFR and FRS2: • Western blotting using manual work; • Automatic capillary electrophoresis and immunodetection using automatic system Wes™ (ProteinSimple; SantaClara, Calif.).\nLike in Example 1, stomach cancer cells KATO III strongly expressing FGFR2 were used. A part of cells stimulated FGF-2 in concentration 1 mg/ml and heparin 10 mg/ml. The other part of the cells was left without stimulation. Inhibitor RPT835 in dose 1, 10, 100, 1000 nM was added to cells. The control group left without addition of RPT835.\nThe level of FGFR phosphorylation was assessed using standard Western-blotting and automatic capillary electrophoresis with immune-detection and use of automatic system Wes™ (ProteinSimple; SantaClara, Calif.)."}}, "note": "pIC50: −log10 of the molar value.", "data": [{"smiles": "Cc1cc([N+](=O)[O-])c(NS(=O)(=O)c2cccc(C(=O)O)c2)cc1-c1cccnc1", "note": "[RPT835, 3-(N-(4-methyl-2-nitro-5-(pyridin-3-yl)phenyl)sulfamoyl)benzoic acid]", "values": [{"measurement": "pIC50", "setting": "[1]", "value": 8.00}, {"measurement": "Slowdown of tumor growth", "setting": "[2]; 31st day", "value": 33.2, "unit": "%"}, {"measurement": "average size of tumor", "setting": "[2]; 31st day", "value": "703±89.1", "unit": "mm3"}, {"measurement": "Slowdown of tumor growth", "setting": "[2]; 40th day", "value": 30.6, "unit": "%"}, {"measurement": "average size of tumor", "setting": "[2]; 40th day, P=0.01", "value": "1,104±162.2 mm3"}, {"measurement": "Slowdown of the tumor growth", "setting": "[3]; 30 day, 30 mg/kg daily", "value": 60.2, "unit": "%"}, {"measurement": "average size of the tumor", "setting": "[3]; 30 day, 30 mg/kg daily through a stomach tube", "value": "1,080.7±49 mm3"}, {"measurement": "Size of tumor (median)", "setting": "[3]; Day 7, 30 mg/kg daily through a stomach tube", "value": 48.0, "unit": "mm3"}, {"measurement": "Size of tumor (median)", "setting": "[3]; Day 10, 30 mg/kg daily through a stomach tube", "value": 112.0, "unit": "mm3"}, {"measurement": "Size of tumor (median)", "setting": "[3]; Day 13, 30 mg/kg daily through a stomach tube", "value": 181.0, "unit": "mm3"}, {"measurement": "Size of tumor (median)", "setting": "[3]; Day 16, 30 mg/kg daily through a stomach tube", "value": 256.0, "unit": "mm3"}, {"measurement": "Size of tumor (median)", "setting": "[3]; Day 19, 30 mg/kg daily through a stomach tube", "value": 417.0, "unit": "mm3"}, {"measurement": "Size of tumor (median)", "setting": "[3]; Day 22, 30 mg/kg daily through a stomach tube", "value": 591.0, "unit": "mm3"}, {"measurement": "Size of tumor (median)", "setting": "[3]; Day 25, 30 mg/kg daily through a stomach tube", "value": 831.5, "unit": "mm3"}, {"measurement": "Size of tumor (median)", "setting": "[3]; Day 28, 30 mg/kg daily through a stomach tube", "value": 958.5, "unit": "mm3"}, {"measurement": "Size of tumor (median)", "setting": "[3]; Day 31, 30 mg/kg daily through a stomach tube", "value": "1,088.0 mm3"}, {"measurement": "Size of tumor (median)", "setting": "[3]; Day 34, 30 mg/kg daily through a stomach tube", "value": "1,134 mm3"}, {"measurement": "Size of tumor (median)", "setting": "[3]; Day 37, 30 mg/kg daily through a stomach tube", "value": "1,174 mm3"}, {"measurement": "Size of tumor (median)", "setting": "[3]; Day 40, 30 mg/kg daily through a stomach tube", "value": "1,208 mm3"}, {"measurement": "proliferation of cells", "setting": "[4]", "value": "reliably suppressed proliferation"}, {"measurement": "phosphorylation of FGFR2 stimulated by FGF-2 (tyrosine kinase activity)", "setting": "[5]; KATO III cells, 1, 10, 100, 1000 nM", "value": "did not have any effect"}, {"measurement": "phosphorylation of general FGFR", "setting": "[5]; KATO III cells, with and without FGF-2 stimulation", "value": "without influence on phosphorylation of general FGFR"}]}]}
